This is an account of results in patent publication US20140363386A1, “DUALISTIC MOLECULES HAVING UV RADIATION FILTRATING ABILITY AT WIDE SPECTRUM AND POTENT DAMPING ACTIVITY OF THE REACTIVITY OF FREE RADICALS (RADICAL SCAVENGING)” (UNIVERSITA DEGLI STUDI FERRARA, priority 2012, published 2014).

Series [1] is described as follows: DPPH test: reducing activity of anti-oxidant molecules against the radical DPPH. Format: biochemical. The conditions noted are these: Trolox equivalents. As for the experimental part:
(§1) The compound object of the present invention was tested through different in vitro tests that complement one another, in order to evaluate its ability to counteract different radical species.
(§2) In particular, the DPPH test, based on the measurement of the reducing activity of anti-oxidant molecules against the radical DPPH (2,2-diphenyl-1-picrylhydrazyl), the FRAP (Ferric Reducing/Antioxidant Power) test, which measures the ability of an anti-oxidant to reduce the Fe^3+ ions to Fe^2+ ions in acid conditions and in the presence of TPTZ (2,4,6-tripyridyl-triazine) and PCL (Photochemiluminescence) analysis, which allows measurement of the inhibition by the anti-oxidants of photo-induced auto-oxidation of the luminol promoted by the superoxide anion, were used.
(§3) In table 1, in which the values are expressed in μmol Trolox/mmol compound, some examples are given.
On the technique in general: Loss of DPPH colour is used to gauge radical scavenging.

The nature of series [2]: PCL analysis of anti-oxidant activity of standard formulations. Format: biochemical. To be noted: standard formulation containing the compound at 3%.
Text: as §2
We then proceeded to measure the anti-oxidant activity through PCL analysis of the standard formulations containing a compound according to the present invention at the concentration of 3%. Such an anti-oxidant activity was measured in order to compare it with the reference molecules.
(§4) Standard Formulation 3% Prepared at pH 7.2-7.6

Series [3] is described as follows: maximum wavelength absorbable (λ max), UV absorption. The format is physicochemical. To be noted: for λ max: pH between 7.4 and 8 in a phosphate buffer. How it is done: Moreover, the compound object of the present invention recorded a significant increase in the maximum wavelength absorbable (λ max) with respect to 2-phenyl-1H-benzimidazole-5-sulfonic acid, which has been taken as reference.
Some examples are given in table 2, in which the λ max were measured at pH comprised between 7.4 and 8 in a phosphate buffer.
In 5 ml of ethanol 100 mg of 3,4-diamine-benzenesulfonic acid sulfate salt (0.35 mmol), 48 mg of 3,4 dihydroxybenzaldehyde (0.35 mmol) and 0.7 ml of sodium bisulfite solution 1N (0.7 mmol) were mixed. The reaction mixture was placed at 80° C. for 24 hours. After having evaporated the solvents, the raw product was treated with 5 ml of solution 5M of HCl. The precipitate was then filtered and the product recrystallized from methanol.

Series [4] in a line: PCL (Photochemiluminescence) analysis of the compounds. The format is biochemical. The conditions noted are these: anti-oxidant activity, Trolox equivalents; photo-induced auto-oxidation of luminol. As for the experimental part: as §1, §2, §3
Series [5] in a line: FRAP (Ferric Reducing/Antioxidant Power) test. The format is biochemical. To be noted: anti-oxidant activity, Trolox equivalents; acid conditions, TPTZ. As for the experimental part: as §1, §2, §3
Series [6] can be described thus: in vitro spectrophotometric determination of solar protection parameters of standard formulations (Diffey and Robson). To be noted: standard formulation containing the compound at 3%.
Text: Determining the UVA/UVB ratio is a parameter that is mostly independent from the SPF value that provides a clear indication of the protective power of the solar product against UVA rays. According to the Boots scale, when the value of such a ratio is comprised between 0.6 and 0.8 the product offers a high UVA protection, when the value is greater than 0.8 the UVA protection is considered to be its maximum.
The critical λ is an important instrumental parameter for evaluating the protective power of the solar product against UVA rays: when the critical λ is greater than 370 nm the product offers protection over a wide spectrum.
Determining the solar protection parameters was carried out through in vitro tests that foresee the use of spectrophotometric techniques, according to the international protocol Diffey and Robson (B. L. Diffey, J. Robson, J. Soc. Cosm. Chem., 1989, 40: 127-133).
As well as 2-phenyl-1H-benzimidazole-5-sulfonic acid, as reference product with which to compare the data a commercial filter (Neo Heliopan® AP) was also used, known to be a water-soluble exclusively UVA filter with critical λ greater than 370 nm. The results of some standard formulations containing a compound according to the present invention are given as an example in table 3.
as §4

For series [7] the following is noted: known property of the commercial filter; cited from earlier work.

`O=C(O)c1ccc2[nH]c(-c3ccc(O)cc3)nc2c1` [2-(4-Hydroxy-phenyl)-1H-benzoimidazole-5-carboxylic acid]: in series [1], the DPPH is recorded as 1.19 ± 0.02 μmol Trolox/mmol compound. For the same compound, the “anti-oxidant activity through PCL analysis” value in series [2] was 0.16 ± 0.02 μmol Trolox/g cosmetic formulation. The same compound showed a λ max in series [3] of 312.5 nm. Besides, the PCL in series [4] is 7 ± 0.3 μmol Trolox/mmol compound. The FRAP in series [5] is 2.62 ± 0.06 μmol Trolox/mmol compound. Moreover, in series [6], the SPF was found to be 8.42 ± 1.55; the “UVA/UVB (ratio between UVA absorbance and UVB absorbance)” value came out at 0.89 ± 0.05; the λ critical worked out at 350 nm.

Turning to `O=S(=O)(O)c1ccc2[nH]c(-c3ccccc3)nc2c1` [2-phenyl-1H-benzimidazole-5-sulfonic acid, reference compound], in series [1], the DPPH came to 4.40 ± 0.03 μmol Trolox/mmol compound. The “anti-oxidant activity through PCL analysis” value in series [2] is recorded as 0 μmol Trolox/g cosmetic formulation. The λ max in series [3] amounted to 302.5 nm. Moreover, the PCL in series [4] is recorded as less than 0 μmol Trolox/mmol compound. For the same compound, the FRAP in series [5] was 0.79 ± 0.05 μmol Trolox/mmol compound. For the same compound, in series [6], the SPF is recorded as 6.33 ± 1.24; the “UVA/UVB (ratio between UVA absorbance and UVB absorbance)” value was 0.31 ± 0.06; the λ critical turned out to be 333 nm.

Consider `O=C(O)c1ccc2[nH]c(-c3ccc(O)c(O)c3)nc2c1` [2-(3,4-Dihydroxy-phenyl)-1H-benzoimidazole-5-carboxylic acid], for which the DPPH in series [1] was determined as 1772 ± 75 μmol Trolox/mmol compound. In addition, the “anti-oxidant activity through PCL analysis” value in series [2] is 383 ± 18 μmol Trolox/g cosmetic formulation. Besides, the λ max in series [3] came out at 317 nm. Besides, in series [4], the PCL amounted to 22014 ± 360 μmol Trolox/mmol compound. In addition, the FRAP in series [5] came out at 1803 ± 22 μmol Trolox/mmol compound. Moreover, in series [6], the SPF stood at 9.82 ± 1.30; the “UVA/UVB (ratio between UVA absorbance and UVB absorbance)” value is given as 1.21 ± 0.04; the λ critical is recorded as 369.5 nm.

Take `O=C(O)c1ccc2[nH]c(-c3ccc(O)cc3O)nc2c1` [2-(2,4-Dihydroxy-phenyl)-1H-benzoimidazole-5-carboxylic acid]: the DPPH in series [1] is recorded as 32.2 ± 2.1 μmol Trolox/mmol compound. The “anti-oxidant activity through PCL analysis” value in series [2] was 4.97 ± 0.17 μmol Trolox/g cosmetic formulation. The same compound yielded a λ max in series [3] of 321.5 nm. Besides, the PCL in series [4] turned out to be 160 ± 4 μmol Trolox/mmol compound. The FRAP in series [5] is reported as 31.6 ± 1.7 μmol Trolox/mmol compound. In addition, in series [6], the SPF came out at 4.70 ± 0.62; the “UVA/UVB (ratio between UVA absorbance and UVB absorbance)” value is 1.48 ± 0.03; the λ critical was 369.5 nm.

For the compound `O=S(=O)([O-])c1cc(S(=O)(=O)O)cc2[nH]c(-c3ccc(-c4nc5c(S(=O)(=O)[O-])cc(S(=O)(=O)O)cc5[nH]4)cc3)nc12.[Na+].[Na+]` [Neo Heliopan ® AP, reference compound], the “anti-oxidant activity through PCL analysis” value in series [2] is 0 μmol Trolox/g cosmetic formulation. In addition, the “critical λ” value in series [7] is given as “greater than 370 nm”. Besides, in series [6], the SPF stood at 4.59 ± 0.37; the “UVA/UVB (ratio between UVA absorbance and UVB absorbance)” value turned out to be 2.46 ± 0.12; the λ critical came to 371 nm.

With `O=S(=O)(O)c1ccc2[nH]c(-c3ccc(O)c(O)c3)nc2c1` [2-(3,4-dihydroxy-phenyl)-1H-benzoimidazole-5-sulfonic acid], in series [1], the DPPH came out at 2145 ± 40 μmol Trolox/mmol compound. Further, the “anti-oxidant activity through PCL analysis” value in series [2] is 725 ± 3 μmol Trolox/g cosmetic formulation. In addition, the λ max in series [3] is reported as 313.5 nm. Further, the “maximum absorption in the UV region” value in series [3] (product of Example 1, medium not stated) stood at 313 nm. Further, the PCL in series [4] is recorded as 27855 ± 764 μmol Trolox/mmol compound. Further, the FRAP in series [5] stood at 2313 ± 26 μmol Trolox/mmol compound. In series [6], the SPF is listed as 13.36 ± 2.20; the “UVA/UVB (ratio between UVA absorbance and UVB absorbance)” value is 0.88 ± 0.04; the λ critical is on record as 358.5 nm.

Turning to `Oc1ccc(-c2nc3ccccc3[nH]2)c(O)c1` [2-(2,4-Dihydroxy-phenyl)-1H-benzimidazole], the DPPH in series [1] stood at 16.5 ± 0.5 μmol Trolox/mmol compound. Moreover, in series [2], the “anti-oxidant activity through PCL analysis” value is reported as 8.66 ± 0.04 μmol Trolox/g cosmetic formulation. Further, the λ max in series [3] amounted to 315.5 nm. Further, the PCL in series [4] is recorded as 198 ± 3 μmol Trolox/mmol compound. For the same compound, the FRAP in series [5] is given as 37.3 ± 0.3 μmol Trolox/mmol compound. Further, in series [6], the SPF is 4.85 ± 0.71; the “UVA/UVB (ratio between UVA absorbance and UVB absorbance)” value is 1.31 ± 0.04; the λ critical is 379.5 nm.

With `Oc1ccc(-c2nc3ccccc3[nH]2)cc1O` [2-(3,4-Dihydroxy-phenyl)-1H-benzimidazole], the DPPH in series [1] came out at 1975 ± 15 μmol Trolox/mmol compound. Also, the “anti-oxidant activity through PCL analysis” value in series [2] is 760 ± 5 μmol Trolox/g cosmetic formulation. The λ max in series [3] was 311 nm. The PCL in series [4] amounted to 27442 ± 329 μmol Trolox/mmol compound. Moreover, in series [5], the FRAP came to 2523 ± 29 μmol Trolox/mmol compound. Also, in series [6], the SPF is listed as 7.07 ± 1.36; the “UVA/UVB (ratio between UVA absorbance and UVB absorbance)” value was determined as 0.93 ± 0.02; the λ critical is given as 367.5 nm.
